The values below come from patent US9232796B2, “Herbicidal compositions comprising 4-amino-3-chloro-5-fluoro-6-(4-chloro-2-fluoro-3-methoxyphenyl) pyridine-2-carboxylic acid or a derivative thereof and acetyl-CoA carboxylase (ACCase) inhibitors” (DOW AGROSCIENCES LLC, priority 2012, dated 2016).

For this assay, the system named is APESV. Nature of the assay: Example IV postemergence foliar-applied, greenhouse, cereal crops weeds. It is filed as in vivo, Apera spica-venti (L.) Beauv. As for the experimental part:
Seeds of the desired test plant species were planted in Sun Gro MetroMix® 306 planting mixture, which typically has a pH of 6.0 to 6.8 and an organic matter content of about 30 percent, in plastic pots with a surface area of 103.2 square centimeters (cm^2). […] The plants were grown for 7-36 days in a greenhouse with an approximate 14 hour photoperiod which was maintained at about 18° C. during the day and about 17° C. during the night. Nutrients and water were added on a regular basis and supplemental lighting was provided with overhead metal halide 1000-Watt lamps as necessary. The plants were employed for testing when they reached the second or third true leaf stage.
Treatments consisted of the benzyl ester of 4-amino-3-chloro-5-fluoro-6-(4-chloro-2-fluoro-3-methoxy-phenyl)pyridine-2-carboxylic acid (Compound A), formulated as an SC, a second cereal herbicide alone and then both in combination.
Other herbicidal components were applied on an active ingredient basis and included acetyl-CoA carboxylase (ACCase)-inhibiting herbicides clodinafop-propargyl, fenoxaprop-P-ethyl, pinoxaden and tralkoxydim.
Measured aliquots of benzyl ester of 4-amino-3-chloro-5-fluoro-6-(4-chloro-2-fluoro-3-methoxy-phenyl)pyridine-2-carboxylic acid (Compound A) were placed in 25 milliliter (mL) glass vials and diluted in a volume of 1.25% (v/v) Agri-Dex® crop oil concentrate to obtain stock solutions. Compound requirements are based upon a 12 mL application volume at a rate of 187 liters per hectare (L/ha). […] Formulated compounds were applied to the plant material with an overhead Mandel track sprayer equipped with an 8002E nozzle calibrated to deliver 187 L/ha over an application area of 0.503 square meters (m^2) at a spray height of 18 inches (46 cm) above average plant canopy. Control plants were sprayed in the same manner with the solvent blank.
The treated plants and control plants were placed in a greenhouse as described above and watered by sub-irrigation to prevent wash-off of the test compounds. After 20-22 days, the condition of the test plants as compared with that of the control plants was determined visually and scored on a scale of 0 to 100 percent where 0 corresponds to no injury and 100 corresponds to complete kill.
Colby's equation was used to determine the herbicidal effects expected from the mixtures (Colby, S. R. 1967. Calculation of the synergistic and antagonistic response of herbicide combinations. Weeds 15:20-22.).
The following equation was used to calculate the expected activity of mixtures containing two active ingredients, A and B: Expected=A+B−(A×B/100)

As to `COc1c(Cl)ccc(-c2nc(C(=O)OCc3ccccc3)c(Cl)c(N)c2F)c1F` [Compound A Benzyl Ester, benzyl ester of 4-amino-3-chloro-5-fluoro-6-(4-chloro-2-fluoro-3-methoxy-phenyl)pyridine-2-carboxylic acid], the “Visual Weed Control (%) - 21 DAA APESV Obs” value runs as follows: (Compound A Benzyl Ester 5 gai/ha) 0%; (Compound A Benzyl Ester 10 gai/ha) 0%.
